Laboratory results as given in ChEMBL document CHEMBL3259784, “Synthesis of novel 2-mercaptobenzoxazole based 1,2,3-triazoles as inhibitors of proinflammatory cytokines and suppressors of COX-2 gene expression” (Eur J Med Chem, 2014).
Activity calls are given as the source filed them. The calls are words filed in the database; no cut-off is given here.

How the values were obtained:
Rattus norvegicus [1] = test: Antiinflammatory activity against carrageenan-induced hind paw Albino Wistar rat model assessed as reduction in nitric oxide level in hind paw at 0.05 mmol/kg, po treated 1 hr before carrageenan challenge by griess reagent based microplate reader analysis; format: functional, organism-based
[2] = biological target: Prostaglandin G/H synthase 1 (Homo sapiens, UniProt P23219); test: Inhibition of COX-1 (unknown origin)
[3] = biological target: T1, Prostaglandin G/H synthase 2 (Homo sapiens, UniProt P35354); test: Inhibition of COX-2 (unknown origin)
T1 sequence (P35354 whole entry): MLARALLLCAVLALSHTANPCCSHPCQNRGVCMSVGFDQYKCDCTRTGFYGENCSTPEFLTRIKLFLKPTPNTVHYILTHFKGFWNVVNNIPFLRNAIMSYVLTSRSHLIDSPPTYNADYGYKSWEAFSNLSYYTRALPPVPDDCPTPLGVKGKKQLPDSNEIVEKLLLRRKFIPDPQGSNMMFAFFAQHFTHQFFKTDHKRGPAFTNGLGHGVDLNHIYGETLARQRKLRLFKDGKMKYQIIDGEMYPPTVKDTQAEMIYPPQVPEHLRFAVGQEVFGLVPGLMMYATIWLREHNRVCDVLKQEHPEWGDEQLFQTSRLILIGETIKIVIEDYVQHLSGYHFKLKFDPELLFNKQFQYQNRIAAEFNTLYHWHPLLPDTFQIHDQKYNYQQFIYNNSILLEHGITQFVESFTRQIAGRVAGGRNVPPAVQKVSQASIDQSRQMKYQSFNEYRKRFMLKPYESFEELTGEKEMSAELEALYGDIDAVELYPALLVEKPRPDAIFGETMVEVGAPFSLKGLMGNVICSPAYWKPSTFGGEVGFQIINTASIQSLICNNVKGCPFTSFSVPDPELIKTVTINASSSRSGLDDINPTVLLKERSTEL

Rattus norvegicus [4] = test: Antiinflammatory activity in Albino Wistar rat assessed as inhibition of carrageenan-induced hind paw edema at 0.05 mmol/kg, po treated 1 hr before carrageenan challenge by plethysmometer analysis; format: functional, organism-based; conditions: TDE = time-dependent effect
Rattus norvegicus [5] = test: Antiinflammatory activity against carrageenan-induced hind paw Albino Wistar rat model assessed as reduction in serum TNF-alpha level at 0.05 mmol/kg, po treated 1 hr before carrageenan challenge by ELISA; format: functional
Rattus norvegicus [6] = test: Ulcerogenicity in Albino Wistar rat assessed as gastric ulceration and rupture of gastric mucosal layer at 0.15 mmol/kg, po measured after 5 hrs; format: toxicity, organism-based, Gastric mucosa; conditions: in vivo
Rattus norvegicus [7] = test: Antiinflammatory activity against carrageenan-induced hind paw Albino Wistar rat model assessed as reduction in serum COX2 level at 0.05 mmol/kg, po treated 1 hr before carrageenan challenge by ELISA; format: functional
Mus musculus = test: Antinociceptive activity in mouse assessed as inhibition of acetic acid-induced writhing at 0.05 mmol/kg, po administered 30 mins prior to acetic acid challenge measured for 20 mins after acetic acid injection; format: functional
Rattus norvegicus [8] = test: Antiinflammatory activity against carrageenan-induced hind paw Albino Wistar rat model assessed as reduction in serum IL-1 beta level at 0.05 mmol/kg, po treated 1 hr before carrageenan challenge by ELISA; format: functional
HeLa = test: Decrease in COX-2 gene expression in human HeLa cells at 10 uM after 24 hrs by real time PCR analysis relative to celecoxib; format: functional
Rattus norvegicus [9] = test: Antiinflammatory activity in Albino Wistar rat assessed as inhibition of carrageenan-induced hind paw edema at 0.05 mmol/kg, po treated 1 hr before carrageenan challenge measured 5 hrs post-carrageenan injection by plethysmometer analysis; format: functional
Rattus norvegicus [10] = test: Antiinflammatory activity in Albino Wistar rat assessed as inhibition of carrageenan-induced hind paw edema at 0.05 mmol/kg, po treated 1 hr before carrageenan challenge measured 3 hrs post-carrageenan injection by plethysmometer analysis; format: functional
Rattus norvegicus [11] = test: Antiinflammatory activity against carrageenan-induced hind paw Albino Wistar rat model assessed as reduction in nitric oxide level in hind paw at 0.05 mmol/kg, po treated 1 hr before carrageenan challenge measured per mg of wet tissue by griess reagent based microplate reader analysis; format: functional
Rattus norvegicus [12] = test: Antioxidant activity in carrageenan-induced hind paw Albino Wistar rat model assessed as increase in GSH level in hind paw joint at 0.05 mmol/kg, po treated 1 hr before carrageenan challenge measured per gm of tissue by plate reader analysis (reference value: 0.58 +/-0.02 ug); format: functional
Rattus norvegicus [13] = test: Antioxidant activity in carrageenan-induced hind paw Albino Wistar rat model assessed as inhibition of lipid peroxidation by measuring TBARS level in hind paw at 0.05 mmol/kg, po treated 1 hr before carrageenan challenge by microplate reader analysis; format: functional

Sequence of Prostaglandin G/H synthase 1 (P23219 whole entry): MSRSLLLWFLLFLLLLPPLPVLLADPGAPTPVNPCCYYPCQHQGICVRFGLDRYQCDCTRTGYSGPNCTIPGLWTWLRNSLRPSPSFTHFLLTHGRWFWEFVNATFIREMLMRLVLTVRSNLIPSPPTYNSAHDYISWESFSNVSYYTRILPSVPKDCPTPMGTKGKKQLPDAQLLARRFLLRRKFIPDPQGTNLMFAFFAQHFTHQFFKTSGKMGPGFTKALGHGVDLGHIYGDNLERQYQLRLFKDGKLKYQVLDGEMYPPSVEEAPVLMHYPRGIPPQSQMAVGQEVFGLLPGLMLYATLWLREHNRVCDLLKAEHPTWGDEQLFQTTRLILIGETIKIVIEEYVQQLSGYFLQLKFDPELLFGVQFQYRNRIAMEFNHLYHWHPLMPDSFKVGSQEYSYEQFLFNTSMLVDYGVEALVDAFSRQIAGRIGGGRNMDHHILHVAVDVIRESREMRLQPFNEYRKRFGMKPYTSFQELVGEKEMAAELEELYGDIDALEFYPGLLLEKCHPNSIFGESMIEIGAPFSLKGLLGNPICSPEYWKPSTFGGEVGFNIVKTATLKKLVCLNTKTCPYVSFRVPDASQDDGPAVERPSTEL

Row | SMILES | inhibition (Rattus norvegicus [1]) | IC50 [2] [µM] | IC50 [3] [µM] | inhibition (Rattus norvegicus [4]) | also measured
1 | c1ccc(-n2cc(CSc3nc4ccccc4o3)nn2)cc1 | Active | 107 | 6.42 | tde | 
2 | Clc1cccc(-n2cc(CSc3nc4ccccc4o3)nn2)c1 | Active | 88.3 | 4.63 | tde | 
3 | Cc1ccc(-n2cc(CSc3nc4ccccc4o3)nn2)cc1C | Active | 140 | 4.35 | tde | 
4 | COc1ccc(-n2cc(CSc3nc4ccccc4o3)nn2)cc1 | Active | 89.4 | 2.3 | tde | Activity (Rattus norvegicus [5]): 3.1 pg/mL; Activity (Rattus norvegicus [6]): Non-toxic; Activity (Rattus norvegicus [7]): 6.54 nmol/min/mL; inhibition in vivo at 50 µmol/kg (Mus musculus): 55.5%; inhibition (Rattus norvegicus [8]): Active
5 | Brc1ccc(-n2cc(CSc3nc4ccccc4o3)nn2)cc1 | Active | 186 | 2.8 | tde | inhibition (Rattus norvegicus [5]): Active; Activity (Rattus norvegicus [6]): Non-toxic; fold change (FC) (HeLa): 0.79; inhibition (Rattus norvegicus [7]): Active; inhibition (Rattus norvegicus [8]): Active
6 | CCc1ccc(-n2cc(CSc3nc4ccccc4o3)nn2)cc1 | Active | 246 | 3.8 | tde | inhibition in vivo at 50 µmol/kg (Rattus norvegicus [9]): 61.1%; inhibition in vivo at 50 µmol/kg (Rattus norvegicus [10]): 66.7%; inhibition (Rattus norvegicus [5]): Active; Activity (Rattus norvegicus [6]): Non-toxic; Activity (Rattus norvegicus [11]): 5.1 µmol; fold change (FC) (HeLa): 0.94; inhibition (Rattus norvegicus [7]): Active; inhibition (Rattus norvegicus [8]): Active; Activity (Rattus norvegicus [12]): 0.84 µg
7 | Cc1ccc(-c2cc(C(F)(F)F)nn2-c2ccc(S(N)(=O)=O)cc2)cc1 [CELECOXIB] | Active |  |  |  | Activity (Rattus norvegicus [13]): 6.3 nmol; inhibition in vivo at 50 µmol/kg (Rattus norvegicus [9]): 65.5%; inhibition in vivo at 50 µmol/kg (Rattus norvegicus [10]): 72.2%; Activity (Rattus norvegicus [5]): 3.35 pg/mL; Activity (Rattus norvegicus [11]): 5.5 µmol; Activity (Rattus norvegicus [7]): 7.9 nmol/min/mL; inhibition in vivo at 50 µmol/kg (Mus musculus): 70.9%; Activity (Rattus norvegicus [8]): 2.9 pg/mL; Activity (Rattus norvegicus [12]): 0.81 µg
8 | c1cncc(-n2cc(CSc3nc4ccccc4o3)nn2)c1 | Active | 96.6 | 3.98 | tde | 
9 | O=[N+]([O-])c1ccc(-n2cc(CSc3nc4ccccc4o3)nn2)cc1 | Active | 115 | 9.87 | tde | 
10 | Fc1ccccc1-n1cc(CSc2nc3ccccc3o2)nn1 | Active | 24.2 | 2.4 | tde | 
11 | Cc1ccccc1-n1cc(CSc2nc3ccccc3o2)nn1 | Active | 132 | 4.68 | tde | 
12 | Clc1ncccc1-n1cc(CSc2nc3ccccc3o2)nn1 | Active | 103 | 5.03 | tde | 
13 | Clc1ccc(-n2cc(CSc3nc4ccccc4o3)nn2)cc1 | Active | 80.8 | 1.9 | tde | inhibition in vivo at 50 µmol/kg (Rattus norvegicus [9]): 55.5%; inhibition in vivo at 50 µmol/kg (Rattus norvegicus [10]): 68.9%; inhibition (Rattus norvegicus [5]): Active; Activity (Rattus norvegicus [6]): Non-toxic; inhibition (Rattus norvegicus [7]): Active; inhibition in vivo at 50 µmol/kg (Mus musculus): 51.5%; inhibition (Rattus norvegicus [8]): Active
14 | CC(C)(C)c1ccc(-n2cc(CSc3nc4ccccc4o3)nn2)cc1 | Active | 154 | 3.85 | tde | 
15 | Brc1ccccc1-n1cc(CSc2nc3ccccc3o2)nn1 | Active | 38.4 | 2.75 | tde | 
16 | CCOc1ccc(-n2cc(CSc3nc4ccccc4o3)nn2)cc1 | Active | 163 | 3.5 | tde | Activity (Rattus norvegicus [13]): 5.1 nmol; inhibition (Rattus norvegicus [5]): Active; Activity (Rattus norvegicus [6]): Non-toxic; inhibition (Rattus norvegicus [7]): Active; Activity (Rattus norvegicus [8]): 2.66 pg/mL; Activity (Rattus norvegicus [12]): 0.84 µg
17 | Fc1ccc(-n2cc(CSc3nc4ccccc4o3)nn2)cc1 | Active | 192 | 5.21 | tde | 
18 | O=[N+]([O-])c1cccc(-n2cc(CSc3nc4ccccc4o3)nn2)c1 | Active | 104 | 9.58 | tde | 
19 | Clc1ccccc1-n1cc(CSc2nc3ccccc3o2)nn1 | Active | 44.4 | 3.53 | tde | 
